Assay results taken from patent publication US10047104B2, “Bicyclic heterocyclyl derivatives as IRAK4 inhibitors” (Aurigene Discovery Technologies Limited, priority 2014, dated 2018).
Structures can show the parent of a compound that is named as a salt.

molecular target: T1, recombinant IRAK-4 kinase (Homo sapiens, UniProt Q9NWZ3); test: IRAK-4 Biochemical Assay (TR-FRET); details: 5 ng IRAK-4 kinase, 100 nM Biotin Histone H3, 20 μM ATP, 30 minutes pre-incubation, read-out: IC50 values for IRAK4 activity
T1 construct: purchased Millipore, USA
T1 sequence (Q9NWZ3 1-460): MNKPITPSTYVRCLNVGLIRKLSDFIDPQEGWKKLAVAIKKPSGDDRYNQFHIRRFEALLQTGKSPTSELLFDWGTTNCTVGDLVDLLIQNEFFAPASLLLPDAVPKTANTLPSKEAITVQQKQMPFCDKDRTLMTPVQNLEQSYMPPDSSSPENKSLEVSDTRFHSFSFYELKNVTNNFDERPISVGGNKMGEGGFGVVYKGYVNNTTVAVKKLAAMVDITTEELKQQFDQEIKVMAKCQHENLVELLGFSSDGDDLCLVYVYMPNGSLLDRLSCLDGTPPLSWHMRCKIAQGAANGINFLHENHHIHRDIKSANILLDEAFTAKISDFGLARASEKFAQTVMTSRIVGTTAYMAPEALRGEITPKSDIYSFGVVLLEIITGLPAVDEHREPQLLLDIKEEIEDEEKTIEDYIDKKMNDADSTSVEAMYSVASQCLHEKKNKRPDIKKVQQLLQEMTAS
Experimental: Compounds were tested for their potential to inhibit IRAK-4 enzyme in a TR-FRET assay using recombinant IRAK-4 kinase from Millipore, USA. The assay buffer was 50 mM Tris-HCl pH 7.5, 20 mM MgCl2, 1 mM EGTA, 2 mM DTT, 3 mM MnCl2 and 0.01% Tween20. 5 ng of IRAK-4 kinase was used for the assay. After pre-incubation of enzyme with test compound for 30 minutes at room temperature, a substrate mix containing 100 nM Biotin Histone H3 (Millipore, USA) and 20 μM ATP (Sigma, USA) was added and the reaction was incubated for 30 minutes. Post incubation, the reaction was stopped by the addition of stop mix containing 40 mM EDTA, 1 nM of Europium-Anti-Phospho-Histone H3 (Ser10) antibody (Perkin Elmer, USA) and 20 nM Sure Light Allophycocyanin-Streptavidin (Perkin Elmer, USA).

Structure (SMILES) | IC50 [nM]
Cc1cnccc1-c1nc(C(=O)Nc2cc3sc(N4CCOCC4)nc3nc2N2CCCCC2)co1 [Example 61, 2-(3-methylpyridin-4-yl)-N-(2-morpholino-5-(piperidin-1-yl)thiazolo[4,5-b]pyridin-6-yl)oxazole-4-carboxamide] | < 50
N[C@H]1CCN(c2nc(C(=O)Nc3cc4sc(N5CCOCC5)nc4nc3C3CC3)co2)C1 [Example 68, (S)-2-(3-aminopyrrolidin-1-yl)-N-(5-cyclopropyl-2-morpholinothiazolo[4,5-b]pyridin-6-yl)oxazole-4-carboxamide] | 50 to 100
O=C(Nc1cc2oc(N3CCCCC3)nc2nc1N1CCCCC1)c1coc(-c2ccc(O)nc2)n1 [Example 30, N-(2,5-di(piperidin-1-yl)oxazolo[4,5-b]pyridin-6-yl)-2-(6-hydroxypyridin-3-yl)oxazole-4-carboxamide] | > 100
Cn1cc(-c2cccc(C(=O)Nc3cc4oc(N5CCCCC5)nc4nc3N3CCCCC3)n2)cn1 [Example 9, N-(2,5-di(piperidin-1-yl)oxazolo[4,5-b]pyridin-6-yl)-6-(1-methyl-1H-pyrazol-4-yl)picolinamide] | 50 to 100
Cc1cc(-c2ccc(C(=O)Nc3cc4sc(N5CCOCC5)nc4nc3N3CC[C@H](O)C3)s2)ccn1 [Example 81, (S)—N-(5-(3-hydroxypyrrolidin-1-yl)-2-morpholinothiazolo[4,5-b]pyridin-6-yl)-5-(2-methylpyridin-4-yl)thiophene-2-carboxamide] | > 100
Cc1cc(-c2nc(C(=O)Nc3cc4sc(N5CCOCC5)nc4nc3N3CCC3)co2)ccn1 [Example 93, N-(5-(azetidin-1-yl)-2-morpholinothiazolo[4,5-b]pyridin-6-yl)-2-(2-methylpyridin-4-yl)oxazole-4-carboxamide] | < 50
Cc1cc(-c2nc(C(=O)Nc3cc4sc(N5CCOCC5)nc4nc3N3C4CCC3CC(O)C4)co2)ccn1 (stereo not shown) [Example 123, N-(5-(3-hydroxy-8-azabicyclo[3.2.1]octan-8-yl)-2-morpholinothiazolo[4,5-b]pyridin-6-yl)-2-(2-methylpyridin-4-yl)oxazole-4-carboxamide] | < 50
Cc1cc(-c2ccc(C(=O)Nc3cc4sc(N5CCOCC5)nc4nc3N3CCC[C@@H](O)C3)o2)ccn1 [Example 95, (R)—N-(5-(3-hydroxypiperidin-1-yl)-2-morpholinothiazolo[4,5-b]pyridin-6-yl)-5-(2-methylpyridin-4-yl)furan-2-carboxamide] | < 50
Cc1ncccc1-c1nc(C(=O)Nc2cc3sc(N4CCOCC4)nc3nc2N2CCCCC2)co1 [Example 54, 2-(2-methylpyridin-3-yl)-N-(2-morpholino-5-(piperidin-1-yl)thiazolo[4,5-b]pyridin-6-yl)oxazole-4-carboxamide] | < 50
N[C@H]1CCN(c2cccc(C(=O)Nc3cc4sc(N5CCCCC5)nc4nc3N3CCCCC3)n2)C1 [Example 64, (S)-6-(3-aminopyrrolidin-1-yl)-N-(2,5-di(piperidin-1-yl)thiazolo[4,5-b]pyridin-6-yl)picolinamide] | < 50
COc1cc(-c2nc(C(=O)Nc3cc4sc(N5CCCCC5)nc4nc3N3CCCCC3)co2)ccn1 [Example 56, N-(2,5-di(piperidin-1-yl)thiazolo[4,5-b]pyridin-6-yl)-2-(2-methoxypyridin-4-yl)oxazole-4-carboxamide] | < 50
Nc1cc(-c2nc(C(=O)Nc3cc4sc(N5CCOCC5)nc4nc3N3CCC(O)CC3)co2)ccn1 [Example 130, 2-(2-aminopyridin-4-yl)-N-(5-(4-hydroxypiperidin-1-yl)-2-morpholinothiazolo[4,5-b]pyridin-6-yl)oxazole-4-carboxamide hydrochloride] | < 50
Cc1cc(-c2nc(C(=O)Nc3cc4oc(N5CCOCC5)nc4nc3N3CCN(C)CC3)co2)ccn1 [Example 25, N-(5-(4-methylpiperazin-1-yl)-2-morpholinooxazolo[4,5-b]pyridin-6-yl)-2-(2-methylpyridin-4-yl)oxazole-4-carboxamide] | < 50
Cc1cc(-c2nc(C(=O)Nc3cc4sc(N5CCOCC5)nc4nc3-c3ccc(F)nc3)co2)ccn1 [Example 122, N-(5-(6-fluoropyridin-3-yl)-2-morpholinothiazolo[4,5-b]pyridin-6-yl)-2-(2-methylpyridin-4-yl)oxazole-4-carboxamide] | < 50
Cc1cc(-c2ccc(C(=O)Nc3cc4oc(N5CCOCC5)nc4nc3N3CCC[C@@H](O)C3)o2)ccn1 [Example 115, (R)—N-(5-(3-hydroxypiperidin-1-yl)-2-morpholinooxazolo[4,5-b]pyridin-6-yl)-5-(2-methylpyridin-4-yl)furan-2-carboxamide] | < 50
Cc1cc(-c2nc(C(=O)Nc3cc4sc(N5CCOCC5)nc4nc3-c3cccc(F)c3)co2)ccn1 [Example 100, N-(5-(3-fluorophenyl)-2-morpholinothiazolo[4,5-b]pyridin-6-yl)-2-(2-methylpyridin-4-yl)oxazole-4-carboxamide] | < 50
Cc1cc(-c2nc(C(=O)Nc3cc4oc(N5CCOCC5)nc4nc3N[C@H]3CCNC3)co2)ccn1 [Example 11, (S)-2-(2-methylpyridin-4-yl)-N-(2-morpholino-5-(pyrrolidin-3-ylamino)oxazolo[4,5-b]pyridin-6-yl)oxazole-4-carboxamide] | < 50
Cc1cc(-c2nc(C(=O)Nc3cc4sc(N5CCCC(O)C5)nc4nc3N3CCCCC3)co2)ccn1 (stereo not shown) [Example 124, N-(2-(3-hydroxypiperidin-1-yl)-5-(piperidin-1-yl)thiazolo[4,5-b]pyridin-6-yl)-2-(2-methylpyridin-4-yl)oxazole-4-carboxamide] | < 50

Next, values leading:

IC50 [nM] | Structure (SMILES)
< 50 | COc1ccc(-c2nc(C(=O)Nc3cc4sc(N5CCOCC5)nc4nc3N3CCCCC3)co2)cn1 [Example 57, 2-(6-methoxypyridin-3-yl)-N-(2-morpholino-5-(piperidin-1-yl)thiazolo[4,5-b]pyridin-6-yl)oxazole-4-carboxamide]
< 50 | C[C@H](O)Cn1cc(-c2cccc(C(=O)Nc3cc4sc(N5CCOCC5)nc4nc3N3CCCCC3)n2)cn1 [Example 96, (S)-6-(1-(2-hydroxypropyl)-1H-pyrazol-4-yl)-N-(2-morpholino-5-(piperidin-1-yl)thiazolo[4,5-b]pyridin-6-yl)picolinamide]
< 50 | COc1ccc(-c2nc(C(=O)Nc3cc4sc(N5CCOCC5)nc4nc3N3CC[C@H](O)C3)co2)cn1 [Example 77, (S)—N-(5-(3-hydroxypyrrolidin-1-yl)-2-morpholinothiazolo[4,5-b]pyridin-6-yl)-2-(6-methoxypyridin-3-yl)oxazole-4-carboxamide]
< 50 | Cc1cc(-c2ccc(C(=O)Nc3cc4sc(N5CCOCC5)nc4nc3N3CCC(F)CC3)o2)ccn1 [Example 97, N-(5-(4-fluoropiperidin-1-yl)-2-morpholinothiazolo[4,5-b]pyridin-6-yl)-5-(2-methylpyridin-4-yl)furan-2-carboxamide]
< 50 | Nc1cc(-c2nc(C(=O)Nc3cc4sc(N5CCOCC5)nc4nc3N3CCCC(O)C3)co2)ccn1 (stereo not shown) [Example 128, 2-(2-aminopyridin-4-yl)-N-(5-(3-hydroxypiperidin-1-yl)-2-morpholinothiazolo[4,5-b]pyridin-6-yl)oxazole-4-carboxamide hydrochloride]
< 50 | Cc1cc(-c2nc(C(=O)Nc3cc4sc(N5CCOCC5)nc4nc3N3CCC[C@H](N)C3)co2)ccn1 [Example 120, (S)—N-(5-(3-aminopiperidin-1-yl)-2-morpholinothiazolo[4,5-b]pyridin-6-yl)-2-(2-methylpyridin-4-yl)oxazole-4-carboxamide hydrochloride]
< 50 | Cc1ncccc1-c1nc(C(=O)Nc2cc3oc(N4CCOCC4)nc3nc2N2CCCCC2)co1 [Example 32, 2-(2-methylpyridin-3-yl)-N-(2-morpholino-5-(piperidin-1-yl)oxazolo[4,5-b]pyridin-6-yl)oxazole-4-carboxamide]
< 50 | CC(=O)Nc1cc(-c2nc(C(=O)Nc3cc4sc(N5CCOCC5)nc4nc3N3CCC(O)CC3)co2)ccn1 [Example 125, 2-(2-acetamidopyridin-4-yl)-N-(5-(4-hydroxypiperidin-1-yl)-2-morpholinothiazolo[4,5-b]pyridin-6-yl)oxazole-4-carboxamide]
< 50 | C[C@H](O)Cn1cc(-c2nc(C(=O)Nc3cc4sc(N5CCOCC5)nc4nc3C3CC3)co2)cn1 [Example 75, (S)—N-(5-cyclopropyl-2-morpholinothiazolo[4,5-b]pyridin-6-yl)-2-(1-(2-hydroxypropyl)-1H-pyrazol-4-yl)oxazole-4-carboxamide]
< 50 | Cc1cc(-c2nc(C(=O)Nc3cc4sc(N5CCOCC5)nc4nc3N3CCCCCC3)co2)ccn1 [Example 91, N-(5-(azepan-1-yl)-2-morpholinothiazolo[4,5-b]pyridin-6-yl)-2-(2-methylpyridin-4-yl)oxazole-4-carboxamide]
